Experimental data: PubChem BioAssay AID2060510 (Molecular Pharmacology Branch, DTP, NCI, 2025)

System: 439559-082-T-J2-PDC spheroids viability
Experiment: Anticancer human tumor 439559-082-T-J2-PDC patient-derived colon adenocarcinoma cell line growth inhibition [GQUAD]
Settings: for IC50: curve of first compound; for viability, T/C: stronger effect = lower value
Method in brief: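 Viability of tumor cells grown as complex spheroids with endothelial and stromal cells, exposed to drug combinations. Top concentration at or near clinical Cmax (else 10 microM), diluted in half-log increments.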

[1] = second compound 0.0316 µM, first compound 0.0316 µM
[2] = second compound 0.0316 µM, first compound 0.316 µM
[3] = second compound 0.1 µM, first compound 0.0316 µM
[4] = second compound 0.1 µM, first compound 0.316 µM
[5] = second compound 0.316 µM, first compound 0.0316 µM
[6] = second compound 0.316 µM, first compound 0.316 µM
[7] = second compound 1 µM, first compound 0.0316 µM
[8] = second compound 1 µM, first compound 0.316 µM
[9] = second compound 3.16 µM, first compound 0.0316 µM
[10] = second compound 3.16 µM, first compound 0.316 µM
[11] = second compound 10 µM, first compound 0.0316 µM
[12] = second compound 10 µM, first compound 0.316 µM
[13] = second compound 0.0316 µM, first compound 0.1 µM
[14] = second compound 0.0316 µM, first compound 1 µM
[15] = second compound 0.0316 µM, first compound 3.16 µM
[16] = second compound 0.0316 µM, first compound 10 µM
[17] = second compound 0.1 µM, first compound 0.1 µM
[18] = second compound 0.1 µM, first compound 1 µM
[19] = second compound 0.1 µM, first compound 3.16 µM
[20] = second compound 0.1 µM, first compound 10 µM
[21] = second compound 0.316 µM, first compound 0.1 µM
[22] = second compound 0.316 µM, first compound 1 µM
[23] = second compound 0.316 µM, first compound 3.16 µM
[24] = second compound 0.316 µM, first compound 10 µM
[25] = second compound 1 µM, first compound 0.1 µM
[26] = second compound 1 µM, first compound 1 µM
[27] = second compound 1 µM, first compound 3.16 µM
[28] = second compound 1 µM, first compound 10 µM
[29] = second compound 3.16 µM, first compound 0.1 µM
[30] = second compound 3.16 µM, first compound 1 µM
[31] = second compound 3.16 µM, first compound 3.16 µM
[32] = second compound 3.16 µM, first compound 10 µM
[33] = second compound 10 µM, first compound 0.1 µM
[34] = second compound 10 µM, first compound 1 µM
[35] = second compound 10 µM, first compound 3.16 µM
[36] = second compound 10 µM, first compound 10 µM
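Further: spheroids exposed to the agents for 7 days before readout.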
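Wherever viability, T/C is given: percent of luminescence signal in DMSO vehicle wells taken as 100% viability.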

Question: How did the IC50 (second compound 0.0316 µM) turn out when `Cc1[nH]c2ccccc2c1CCNCc1ccc(/C=C/C(=O)NO)cc1` + Cc1cnc(CNC(=O)c2c(=O)c3ccc(N4CCCN(C)CC4)nc3n3c2sc2ccccc23)cn1 was run?
Answer: > 316 nM

Question: And the IC50 (second compound 0.1 µM)?
Answer: > 316 nM

Question: What about the IC50 (second compound 0.316 µM) of the same compound?
Answer: > 316 nM

Question: What about the IC50 (second compound 1 µM) of the same compound?
Answer: > 316 nM

Question: What about the IC50 (second compound 3.16 µM) of the same compound?
Answer: > 316 nM

Question: What about the IC50 (second compound 10 µM) of the same compound?
Answer: 205 nM

Question: What about the viability, T/C (second compound 0.0316 µM, first compound 0.000999 µM) of the same compound?
Answer: 101%

Question: And the viability, T/C (second compound 0.0316 µM, first compound 0.00316 µM)?
Answer: 92.8%

Question: What about the viability, T/C (second compound 0.0316 µM, first compound 0.00999 µM) of the same compound?
Answer: 99%

Question: What about the viability, T/C [1] of the same compound?
Answer: 90.6%

Question: And the viability, T/C (second compound 0.0316 µM, first compound 0.0999 µM)?
Answer: 81.7%

Question: And the viability, T/C [2]?
Answer: 63.7%

Question: What about the viability, T/C (second compound 0.1 µM, first compound 0.000999 µM) of the same compound?
Answer: 104%

Question: And the viability, T/C (second compound 0.1 µM, first compound 0.00316 µM)?
Answer: 100%

Question: What about the viability, T/C (second compound 0.1 µM, first compound 0.00999 µM) of the same compound?
Answer: 87.5%

Question: What about the viability, T/C [3] of the same compound?
Answer: 93.9%

Question: And the viability, T/C (second compound 0.1 µM, first compound 0.0999 µM)?
Answer: 85.9%

Question: What about the viability, T/C [4] of the same compound?
Answer: 59.8%

Question: And the viability, T/C (second compound 0.316 µM, first compound 0.000999 µM)?
Answer: 92.7%

Question: And the viability, T/C (second compound 0.316 µM, first compound 0.00316 µM)?
Answer: 85.4%

Question: What about the viability, T/C (second compound 0.316 µM, first compound 0.00999 µM) of the same compound?
Answer: 89.6%

Question: What about the viability, T/C [5] of the same compound?
Answer: 76.2%

Question: What about the viability, T/C (second compound 0.316 µM, first compound 0.0999 µM) of the same compound?
Answer: 80.8%

Question: And the viability, T/C [6]?
Answer: 65.2%

Question: And the viability, T/C (second compound 1 µM, first compound 0.000999 µM)?
Answer: 86.8%

Question: What about the viability, T/C (second compound 1 µM, first compound 0.00316 µM) of the same compound?
Answer: 79.6%

Question: And the viability, T/C (second compound 1 µM, first compound 0.00999 µM)?
Answer: 80.4%

Question: What about the viability, T/C [7] of the same compound?
Answer: 71.8%

Question: And the viability, T/C (second compound 1 µM, first compound 0.0999 µM)?
Answer: 83.1%

Question: What about the viability, T/C [8] of the same compound?
Answer: 55.7%

Question: What about the viability, T/C (second compound 3.16 µM, first compound 0.000999 µM) of the same compound?
Answer: 73.4%

Question: And the viability, T/C (second compound 3.16 µM, first compound 0.00316 µM)?
Answer: 70.1%

Question: And the viability, T/C (second compound 3.16 µM, first compound 0.00999 µM)?
Answer: 81.4%

Question: What about the viability, T/C [9] of the same compound?
Answer: 74.1%

Question: What about the viability, T/C (second compound 3.16 µM, first compound 0.0999 µM) of the same compound?
Answer: 73.7%

Question: What about the viability, T/C [10] of the same compound?
Answer: 53.9%

Question: What about the viability, T/C (second compound 10 µM, first compound 0.000999 µM) of the same compound?
Answer: 70%

Question: What about the viability, T/C (second compound 10 µM, first compound 0.00316 µM) of the same compound?
Answer: 68.7%

Question: And the viability, T/C (second compound 10 µM, first compound 0.00999 µM)?
Answer: 64.2%

Question: What about the viability, T/C [11] of the same compound?
Answer: 67%

Question: And the viability, T/C (second compound 10 µM, first compound 0.0999 µM)?
Answer: 67.5%

Question: And the viability, T/C [12]?
Answer: 39.5%

Question: Which results are given for `CC1COCCN1c1cc(C2(O)CC3CCC(C2)O3)c2cnn(-c3ccn[nH]3)c2n1` (stereo unspecified) + Cc1cnc(CNC(=O)c2c(=O)c3ccc(N4CCCN(C)CC4)nc3n3c2sc2ccccc23)cn1?
Answer: IC50 (second compound 0.0316 µM): 901 nM; IC50 (second compound 0.1 µM): 591 nM; IC50 (second compound 0.316 µM): 364 nM; IC50 (second compound 1 µM): 342 nM; IC50 (second compound 3.16 µM): 275 nM; IC50 (second compound 10 µM): 136 nM; viability, T/C [1]: 84.9%; viability, T/C [13]: 85.1%; viability, T/C [2]: 66.8%; viability, T/C [14]: 47.8%; viability, T/C [15]: 38.4%; viability, T/C [16]: 30.4%; viability, T/C [3]: 84.4%; viability, T/C [17]: 77.6%; viability, T/C [4]: 57.6%; viability, T/C [18]: 43.8%; viability, T/C [19]: 34.6%; viability, T/C [20]: 33.2%; viability, T/C [5]: 82.5%; viability, T/C [21]: 68.7%; viability, T/C [6]: 54.3%; viability, T/C [22]: 34.3%; viability, T/C [23]: 37.9%; viability, T/C [24]: 31.3%; viability, T/C [7]: 71.4%; viability, T/C [25]: 68.2%; viability, T/C [8]: 49.6%; viability, T/C [26]: 36.5%; viability, T/C [27]: 28.8%; viability, T/C [28]: 26.6%; viability, T/C [9]: 65.5%; viability, T/C [29]: 57.8%; viability, T/C [10]: 49.9%; viability, T/C [30]: 34.6%; viability, T/C [31]: 25.2%; viability, T/C [32]: 27.3%; viability, T/C [11]: 65.6%; viability, T/C [33]: 50.5%; viability, T/C [12]: 44.5%; viability, T/C [34]: 32.8%; viability, T/C [35]: 27.6%; viability, T/C [36]: 21.2%

Question: For `CC(C)n1c(=O)n(C)c2cnc3cc(F)c(-c4ccc(OCCCN5CCCCC5)nc4)cc3c21` + CN(C)c1ccc(Nc2c3ccc(NC(=O)CCN4CCCC4)cc3nc3cc(NC(=O)CCN4CCCC4)ccc23)cc1, which IC50 (second compound 0.0316 µM) is on record?
Answer: > 10000 nM

Question: What about the IC50 (second compound 0.1 µM) of the same compound?
Answer: > 10000 nM

Question: What about the IC50 (second compound 0.316 µM) of the same compound?
Answer: > 10000 nM

Question: What about the IC50 (second compound 1 µM) of the same compound?
Answer: > 10000 nM

Question: What about the IC50 (second compound 3.16 µM) of the same compound?
Answer: > 10000 nM

Question: And the IC50 (second compound 10 µM)?
Answer: > 10000 nM

Question: What about the viability, T/C [1] of the same compound?
Answer: 108%

Question: And the viability, T/C [13]?
Answer: 98.2%

Question: And the viability, T/C [2]?
Answer: 118%

Question: What about the viability, T/C [14] of the same compound?
Answer: 116%

Question: What about the viability, T/C [15] of the same compound?
Answer: 122%

Question: And the viability, T/C [16]?
Answer: 91.8%

Question: And the viability, T/C [3]?
Answer: 105%

Question: What about the viability, T/C [17] of the same compound?
Answer: 112%

Question: What about the viability, T/C [4] of the same compound?
Answer: 115%

Question: What about the viability, T/C [18] of the same compound?
Answer: 119%

Question: What about the viability, T/C [19] of the same compound?
Answer: 113%

Question: And the viability, T/C [20]?
Answer: 91.9%

Question: What about the viability, T/C [5] of the same compound?
Answer: 94.5%

Question: What about the viability, T/C [21] of the same compound?
Answer: 113%

Question: And the viability, T/C [6]?
Answer: 115%

Question: What about the viability, T/C [22] of the same compound?
Answer: 122%

Question: What about the viability, T/C [23] of the same compound?
Answer: 117%

Question: What about the viability, T/C [24] of the same compound?
Answer: 100%

Question: And the viability, T/C [7]?
Answer: 101%

Question: What about the viability, T/C [25] of the same compound?
Answer: 105%

Question: What about the viability, T/C [8] of the same compound?
Answer: 111%

Question: And the viability, T/C [26]?
Answer: 113%

Question: And the viability, T/C [27]?
Answer: 109%

Question: And the viability, T/C [28]?
Answer: 99.6%

Question: What about the viability, T/C [9] of the same compound?
Answer: 105%

Question: What about the viability, T/C [29] of the same compound?
Answer: 113%

Question: And the viability, T/C [10]?
Answer: 121%

Question: What about the viability, T/C [30] of the same compound?
Answer: 108%

Question: What about the viability, T/C [31] of the same compound?
Answer: 117%

Question: What about the viability, T/C [32] of the same compound?
Answer: 83.5%

Question: And the viability, T/C [11]?
Answer: 100%

Question: What about the viability, T/C [33] of the same compound?
Answer: 92%

Question: And the viability, T/C [12]?
Answer: 99%

Question: What about the viability, T/C [34] of the same compound?
Answer: 112%

Question: And the viability, T/C [35]?
Answer: 112%

Question: And the viability, T/C [36]?
Answer: 59.4%
